Experimental data as given in patent publication US8613927B2, “High affinity human antibodies to human nerve growth factor” (Regeneron Pharmaceuticals, Inc., priority 2007, dated 2013).

Assays:
[1] = target: T1, human NT-3 binding to human TrkB-hFc (Homo sapiens, UniProt P20783); assay: BIACORE, NT-3 binding to TrkB-hFc surface in presence of antibody; details: 20 nM NT-3 + 500 nM sample; normalized to IgG1 control
T1 sequence (P20783 139-257): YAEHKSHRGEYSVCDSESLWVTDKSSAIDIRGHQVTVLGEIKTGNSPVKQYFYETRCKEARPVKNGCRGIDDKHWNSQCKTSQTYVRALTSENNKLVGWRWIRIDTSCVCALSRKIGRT
Protocol: (§1) Human TrkA-hFc (9300 RU), human TrkB-hFc (6000 RU), human TrkC-hFc (9100 RU) and human p75-hFc (7500 RU) were covalently coupled to BIACORE® CM5 chip surfaces by amine-coupling procedure. […] The binding mixture was first incubated at room temperature to reach equilibrium (about 1 hr) and then was injected over the above TrkA-hFc, TrkB-hFc, TrkC-hFc and p75-hFc surfaces. The level of human NT-3 binding in each sample was measured. The binding RU from each sample mixture was normalized according to the RU value from the negative control sample (i.e., 20 nM human NT-3 with 500 nM AVASTIN®) and presented as % binding to Trk surfaces (Table 9).

[2] = target: T2, human NT-3 binding to human TrkC-hFc (Homo sapiens, UniProt P20783); assay: BIACORE, NT-3 binding to TrkC-hFc surface in presence of antibody; details: 20 nM NT-3 + 500 nM sample; normalized to IgG1 control
T2 sequence (P20783 139-257): T1 sequence (P20783 139-257)
Protocol: as §1

[3] = system: C57BL/6 mice; assay: Post-operative incision pain model, mechanical allodynia in von Frey test; type: in vivo, mouse; details: Table 17
Protocol: Thermal hyperalgesia was studied in the Hargreaves' test and mechanical allodynia was tested in the von Frey test. In this latter test, mice were tested after being acclimated for 2-3 hours for 4 days in an apparatus with a wire mesh floor. The test was performed by applying, in ascending order, a series of von Frey hairs through the wire mesh onto the plantar surface of the hind paw with the incision. A response was considered positive if the paw was raised from the platform in response to application of the filament. Starting from the thinnest hair, each von Frey filament was applied up to five times until a response was observed.

[4] = target: T3, human NT-3 binding to human TrkA-hFc (Homo sapiens, UniProt P20783); assay: BIACORE, NT-3 binding to TrkA-hFc surface in presence of antibody; details: 20 nM NT-3 + 500 nM sample; normalized to IgG1 control
T3 sequence (P20783 139-257): T1 sequence (P20783 139-257)
Protocol: as §1

[5] = target: T4, human NT-3 binding to human p75-hFc (Homo sapiens, UniProt P20783); assay: BIACORE, NT-3 binding to p75-hFc surface in presence of antibody; details: 20 nM NT-3 + 500 nM sample; normalized to IgG1 control
T4 sequence (P20783 139-257): T1 sequence (P20783 139-257)
Protocol: as §1

[6] = system: C57BL/6 male mice; assay: Seltzer model of neuropathic pain, Hargreaves' test; type: in vivo, mouse
Text: Neuropathic pain. The mouse Seltzer model of neuropathic pain (Malmberg et al. (1998) Pain 76:215-222) was used with C57BL/6 male mice, in which a partial nerve injury was produced by tying a tight ligature with a 7-0 silk suture around approximately ⅓ to ½ the diameter of the sciatic nerve of one single thigh per mouse. Post-surgery, the mice were allowed to recover for at least two days and then they were studied for several weeks post-surgery for thermal hyperalgesia in the Hargreaves' test. Controls were sham-operated mice in which the sciatic nerve was exposed and elevated but not tied. Following surgery, the mice were tested at day […] and at day 7 post-surgery to confirm that the thermal hyperalgesia had developed.
Following the Seltzer surgery, mice were tested at days 5 and 7 post-surgery to confirm that the thermal hyperalgesia had developed.

## IgG1 Control: negative binding control, IgG1 control (AVASTIN®; Genentech, CA)
[1]
  % binding to TrkB-hFc surface: 100%
[2]
  % binding to TrkC-hFc surface: 100%
[3]; 25 mg/kg i.p. on day 1 post-surgery, Baseline
  Paw Withdrawal Threshold: 1.314 ± 0.137 g
[3]; 25 mg/kg i.p., 5 hr after treatment
  Paw Withdrawal Threshold: 0.011 ± 0.002 g
[3]; 25 mg/kg i.p., 22 hr after treatment
  Paw Withdrawal Threshold: 0.029 ± 0.004 g
[3]; 25 mg/kg i.p., 45 hr after treatment
  Paw Withdrawal Threshold: 0.190 ± 0.135 g
[3]; 25 mg/kg i.p., 70 hr after treatment
  Paw Withdrawal Threshold: 0.194 ± 0.034 g
[3]; 25 mg/kg i.p., Day 1 (post-surgery, before injection)
  Paw Withdrawal Threshold: 0.011 ± 0.002 g
[4]
  % binding to TrkA-hFc surface: 100%
[5]
  % binding to p75-hFc surface: 100%
[6]; 50 mg/kg s.c. or i.p. at day 7 post-surgery, p<0.001-0.05
  pain relief: no effect
[6]; Table 23, Seltzer, 100 mg/kg s.c. at day 7, day 0 after surgery
  mean percent change from Hargreaves baseline: 0.0 ± 0.0%
[6]; Table 23, Seltzer, 100 mg/kg s.c. at day 7, day 4
  mean percent change from Hargreaves baseline: −46.9 ± 6.5%
[6]; Table 23, Seltzer, 100 mg/kg s.c. at day 7, day 7
  mean percent change from Hargreaves baseline: −55.3 ± 6.4%
[6]; Table 23, Seltzer, 100 mg/kg s.c. at day 7, day 8
  mean percent change from Hargreaves baseline: −55.6 ± 4.3%
[6]; Table 23, Seltzer, 100 mg/kg s.c. at day 7, day 11
  mean percent change from Hargreaves baseline: −57.3 ± 5.1%
[6]; Table 23, Seltzer, 100 mg/kg s.c. at day 7, day 13
  mean percent change from Hargreaves baseline: −59.7 ± 6.5%
[6]; Table 23, Seltzer, 100 mg/kg s.c. at day 7, day 16
  mean percent change from Hargreaves baseline: −51.2 ± 4.0%
[6]; Table 23, Seltzer, 100 mg/kg s.c. at day 7, day 18
  mean percent change from Hargreaves baseline: −57.7 ± 4.6%
[6]; Table 23, Seltzer, 100 mg/kg s.c. at day 7, day 20
  mean percent change from Hargreaves baseline: −53.2 ± 4.9%
[6]; Table 23, Seltzer, 100 mg/kg s.c. at day 7, day 24
  mean percent change from Hargreaves baseline: −54.9 ± 4.1%
[6]; Table 23, Seltzer, 100 mg/kg s.c. at day 7, day 28
  mean percent change from Hargreaves baseline: −51.81 ± 4.1%
[6]; Table 23, Seltzer, 100 mg/kg s.c. at day 7, day 31
  mean percent change from Hargreaves baseline: −49.7 ± 2.5%
[6]; Table 23, Sham-operated, 100 mg/kg s.c. at day 7, day 0 after surgery
  mean percent change from Hargreaves baseline: 0.0 ± 0.0%
[6]; Table 23, Sham, 100 mg/kg s.c. at day 7, day 4
  mean percent change from Hargreaves baseline: −7.2 ± 3.7%
[6]; Table 23, Sham, 100 mg/kg s.c. at day 7, day 7
  mean percent change from Hargreaves baseline: 8.7 ± 13.2%
[6]; Table 23, Sham, 100 mg/kg s.c. at day 7, day 8
  mean percent change from Hargreaves baseline: −9.4 ± 4.1%
[6]; Table 23, Sham, 100 mg/kg s.c. at day 7, day 11
  mean percent change from Hargreaves baseline: 14.7 ± 11.4%
[6]; Table 23, Sham, 100 mg/kg s.c. at day 7, day 13
  mean percent change from Hargreaves baseline: −6.9 ± 3.3%
[6]; Table 23, Sham, 100 mg/kg s.c. at day 7, day 16
  mean percent change from Hargreaves baseline: 2.3 ± 3.0%
[6]; Table 23, Sham, 100 mg/kg s.c. at day 7, day 18
  mean percent change from Hargreaves baseline: 0.2 ± 2.8%
[6]; Table 23, Sham, 100 mg/kg s.c. at day 7, day 20
  mean percent change from Hargreaves baseline: 3.6 ± 2.4%
[6]; Table 23, Sham, 100 mg/kg s.c. at day 7, day 24
  mean percent change from Hargreaves baseline: 1.5 ± 2.9%
[6]; Table 23, Sham, 100 mg/kg s.c. at day 7, day 28
  mean percent change from Hargreaves baseline: 0.7 ± 2.5%
[6]; Table 23, Sham, 100 mg/kg s.c. at day 7, day 31
  mean percent change from Hargreaves baseline: 1.1 ± 2.3%
[6]; Table 24, 100 mg/kg s.c. injected Day 7 post-surgery, Baseline
  mean percent change from Hargreaves baseline: 0.0 ± 0.0%
[6]; Table 24, 100 mg/kg s.c. injected Day 14 post-surgery, Baseline
  mean percent change from Hargreaves baseline: 0.0 ± 0.0%
[6]; Table 24, 100 mg/kg s.c. injected Day 21 post-surgery, Baseline
  mean percent change from Hargreaves baseline: 0.0 ± 0.0%
[6]; Table 24, injected Day 7, Day 5 after surgery
  mean percent change from Hargreaves baseline: −53.5 ± 5.9%
[6]; Table 24, injected Day 7, Day 8
  mean percent change from Hargreaves baseline: −56.7 ± 3.8%
[6]; Table 24, injected Day 7, Day 10
  mean percent change from Hargreaves baseline: −64.3 ± 2.6%
[6]; Table 24, injected Day 7, Day 14
  mean percent change from Hargreaves baseline: −66.9 ± 5.1%
[6]; Table 24, injected Day 7, Day 15
  mean percent change from Hargreaves baseline: −60.6 ± 4.0%
[6]; Table 24, injected Day 7, Day 17
  mean percent change from Hargreaves baseline: −58.9 ± 3.5%
[6]; Table 24, injected Day 7, Day 21
  mean percent change from Hargreaves baseline: −54.1 ± 9.6%
[6]; Table 24, injected Day 7, Day 22
  mean percent change from Hargreaves baseline: −56.3 ± 4.9%
[6]; Table 24, injected Day 7, Day 24
  mean percent change from Hargreaves baseline: −55.6 ± 5.1%
